Data on seven molecules can be found in article PMC7712541, “Seven New Cytotoxic and Antimicrobial Xanthoquinodins from Jugulospora vestita” (Journal of Fungi, 2020).

One series deals with Pichia anomala. The experiment in a line: MIC, antifungal test. The class given is cell-based. On the set-up: key to Minimum inhibitory concentration (MIC): –: no inhibition observed under test conditions. Here is the method: (§1) Compounds were tested for their antimicrobial activity against […] fungi (Candida albicans, Mucor hiemails, Pichia anomala, Rhodotorula glutinis and Schizosaccharomyces pombe), four different Gram-positive bacteria (Bacillus subtilis, Micrococcus luteus, Mycobacterium smegmatis and Staphylococcus aureus), and three Gram-negative bacteria (Chromobacterium violaceum, Escherichia coli and Pseudomonas aeruginosa), using oxytetracycline as a positive control against Gram-positive and Gram-negative bacteria, while nystatin was used as an antifungal positive control. Besides, cytotoxicities of the compounds against seven mammalian cell lines (human endocervical adenocarcinoma KB 3.1, breast cancer MCF-7, lung cancer A549, ovary cancer SK-OV-3, prostate cancer PC-3, squamous cancer A431, and mouse fibroblasts L929) were determined by the microculture tetrazolium test (MTT) method, using epothilon B as the positive control. Both bioactivity assays were performed following our standard protocols.

The next series relates to Candida albicans. The experiment in a line: MIC, antifungal test. The class given is cell-based. On the set-up: key to Minimum inhibitory concentration (MIC): –: no inhibition observed under test conditions. Here is the method:
as §1

A further series concerns Mucor hiemalis. Put plainly: MIC, antifungal test. It counts as cell-based. Set-up: key to Minimum inhibitory concentration (MIC): –: no inhibition observed under test conditions. How it is done: as §1
In series [1] the test system is Schizosaccharomyces pombe. The experiment in a line: MIC, antifungal test. The class given is cell-based. Set-up: key to Minimum inhibitory concentration (MIC): –: no inhibition observed under test conditions. Here is the method:
as §1

A further series concerns Rhodotorula glutinis. Put plainly: MIC, antifungal test. It counts as cell-based. Set-up: key to Minimum inhibitory concentration (MIC): –: no inhibition observed under test conditions. Here is the method: as §1
In another series the test system is Escherichia coli. The experiment in a line: MIC, antibacterial test. The class given is cell-based. Set-up: key to Minimum inhibitory concentration (MIC): –: no inhibition observed under test conditions. Here is the method: as §1
The next series concerns Pseudomonas aeruginosa. Put plainly: MIC, antibacterial test. It counts as cell-based. On the set-up: key to Minimum inhibitory concentration (MIC): –: no inhibition observed under test conditions. Here is the method:
as §1

For series [2], the system named is Chromobacterium violaceum. The experiment in a line: MIC, antibacterial test. The class given is cell-based. Set-up: key to Minimum inhibitory concentration (MIC): –: no inhibition observed under test conditions. Here is the method: as §1
The nature of a further series: Cytotoxicity, MTT method. Here is the method: as §1
In a further series the test system is Mycobacterium smegmatis. Put plainly: MIC, antibacterial test. It counts as cell-based. On the set-up: key: –: no inhibition observed under test conditions. How it is done:
as §1

The next series deals with Micrococcus luteus. Put plainly: MIC, antibacterial test. The class given is cell-based. The note with it: read-out: Minimum inhibitory concentration (MIC). How it is done:
as §1

Another series has as its system Staphylococcus aureus. The experiment in a line: MIC, antibacterial test. The class given is cell-based. The settings on record: read-out: Minimum inhibitory concentration (MIC). Here is the method:
as §1

In a further series the test system is Bacillus subtilis. The experiment in a line: MIC, antibacterial test. The class given is cell-based. The settings on record: read-out: Minimum inhibitory concentration (MIC). Here is the method: as §1
Series [3] has as its system KB 3.1, L929, A549, SK-OV-3, PC-3, A431, and MCF-7 mammalian cell lines. The experiment in a line: Cytotoxicity, summary over all tested cell lines. The class given is cell-based. The note with it: seven mammalian cell lines; read-out: IC50 values, range over all tested cell lines. How it is done:
as §1

Series [4] deals with Al. brassicicola, Co. gloeosporioides, Co. truncatum, Cu. lunata and Py. grisea. On the set-up: method as in PMID 29677644. The note with it: cited from earlier work.
In the next series the test system is NCI-H187 and Vero. Set-up: method as in PMID 29677644. The note with it: cited from earlier work.
The subject of series [5] is human endocervical adenocarcinoma KB 3.1. Put plainly: Cytotoxicity, MTT method. The settings on record: read-out: Cytotoxicity, half maximal inhibitory concentration (IC50); KB 3.1, MTT. How it is done: as §1
The test system of series [6] is MCF-7 human breast cancer cells. The experiment in a line: Cytotoxicity, MTT method. The note with it: read-out: Cytotoxicity, half maximal inhibitory concentration (IC50); MCF-7, MTT. How it is done:
as §1
On the technique in general: Tetrazolium assays rely on reduction of a dye to a coloured formazan, in cell work by metabolically active cells.

A further series deals with lung cancer A549. Put plainly: Cytotoxicity, MTT method. The note with it: read-out: Cytotoxicity, half maximal inhibitory concentration (IC50); A549, MTT. Here is the method: as §1
The subject of a further series is ovary cancer SK-OV-3. The experiment in a line: Cytotoxicity, MTT method. The settings on record: read-out: Cytotoxicity, half maximal inhibitory concentration (IC50); SK-OV-3, MTT. How it is done: as §1
A further series relates to prostate cancer PC-3. Put plainly: Cytotoxicity, MTT method. The settings on record: read-out: Cytotoxicity, half maximal inhibitory concentration (IC50); PC-3, MTT. How it is done: as §1
The test system of a further series is mouse fibroblasts L929. The experiment in a line: Cytotoxicity, MTT method. The settings on record: read-out: Cytotoxicity, half maximal inhibitory concentration (IC50); L929, MTT. Here is the method: as §1
For series [7], the system named is A431 human squamous cancer cells. Put plainly: Cytotoxicity, MTT method. The settings on record: read-out: Cytotoxicity, half maximal inhibitory concentration (IC50); A431, MTT. Here is the method:
as §1

Series [8] relates to Co. truncatum and Cu. lunata. On the set-up: method as in PMID 29677644. The settings on record: cited from earlier work.
Series [9] has as its system PC-3 prostate cancer cells. Set-up: method as in PMID 31433962. The note with it: cited from earlier work.
[10] abbreviates: read-out: Minimum inhibitory concentration (MIC).
[11] abbreviates: human, A431 squamous cancer cells.
The mark [12] stands for this setting: human, KB 3.1 endocervical adenocarcinoma cells.
[13] abbreviates: human, MCF-7 breast cancer cells.
[14] abbreviates: human, PC-3 prostate cancer cells.
Where [15] appears, read: human, SK-OV-3 ovary cancer cells.

pIC50: −log10 of the molar value. In brackets after ≈: the same amount, converted by molar mass.

On to `CCCC(=O)O[C@H]1c2cc(C)cc(O)c2C(=O)C2=C(O)[C@H]3C=C[C@]21Cc1cc(O)c2c(c13)O[C@@](C(=O)OC)([C@@H](O)CCC(=O)O)CC2=O` [Compound 7, Xanthoquinodin B15], for which the “Minimum inhibitory concentration (MIC)” value (in the series on Pichia anomala; in the series with Candida albicans; in [1]; in the series on Rhodotorula glutinis; with Escherichia coli; in the series on Pseudomonas aeruginosa) was “–” in each case. For the same molecule, the “Minimum inhibitory concentration (MIC)” value (in [2]; in the series with Mycobacterium smegmatis) was “–” throughout. The MIC in the series on Mucor hiemalis (setting [10]) is 66.7 µg/mL (≈ 101 µM); in the series with Micrococcus luteus, 4.2 µg/mL (≈ 6.34 µM); in the series with Staphylococcus aureus, 8.3 µg/mL (≈ 12.5 µM); in the series on Bacillus subtilis, 4.2 µg/mL (≈ 6.34 µM). The pIC50 was 5.54 in “Cytotoxicity, MTT method” (setting [11]); 4.94 in “Cytotoxicity, MTT method” (human, A549 lung cancer cells); 5.46 in the series “Cytotoxicity, MTT method” (setting [12]); 5.99 in “Cytotoxicity, MTT method” (setting [13]); 5.30 in “Cytotoxicity, MTT method” (setting [14]); 5.41 in the series “Cytotoxicity, MTT method” (setting [15]). Besides, the pIC50 in the series “Cytotoxicity, MTT method” (mouse, L929 fibroblasts) is 5.00; in [3], 4.73 to 5.99.

`COC(=O)[C@]12Oc3c(c(O)cc4c3[C@@H]3C=C[C@]5(C4)C(=C(O)c4c(O)cc(C)cc4[C@@H]5O)C3=O)C(=O)C1=C(O)CC[C@@H]2O` [Compound 8, Xanthoquinodin B4]: the “Antifungal effects (in words)” value in [4] is on record as “significant antifungal effects”. Besides, the “Minimum inhibitory concentration (MIC)” value (with Pichia anomala; in the series with Candida albicans; with Mucor hiemalis; in series [1]; in the series on Rhodotorula glutinis; with Escherichia coli) was “–” each time. In addition, the “Minimum inhibitory concentration (MIC)” value in the series on Pseudomonas aeruginosa and in the series with Mycobacterium smegmatis was “–” in each case. For the same molecule, the MIC in [2] (setting [10]) is 66.7 µg/mL (≈ 116 µM); in the series on Micrococcus luteus, 8.3 µg/mL (≈ 14.4 µM); in the series with Staphylococcus aureus, 8.3 µg/mL (≈ 14.4 µM); in the series with Bacillus subtilis, 2.1 µg/mL (≈ 3.66 µM). Further, the pIC50 is 6.80 in the series “Cytotoxicity, MTT method” (setting [11]); 5.91 in the series “Cytotoxicity, MTT method” (human, A549 lung cancer cells); 5.97 in the series “Cytotoxicity, MTT method” (setting [12]); 7.00 in the series “Cytotoxicity, MTT method” (setting [13]); 5.50 in “Cytotoxicity, MTT method” (setting [14]); 6.33 in “Cytotoxicity, MTT method” (setting [15]). The pIC50 is 5.33 in “Cytotoxicity, MTT method” (mouse, L929 fibroblasts) and 5.33 to 7.00 in [3]. Moreover, the “Cytotoxicity compared with other xanthoquinodins (in words)” value in the series with NCI-H187 and Vero is recorded as “stronger cytotoxicity”.

Regarding `C/C(=C\c1csc(C)n1)[C@@H]1C[C@@H]2O[C@]2(C)CCC[C@H](C)[C@H](O)[C@@H](C)C(=O)C(C)(C)[C@@H](O)CC(=O)O1` [epothilon B, reference compound], the pIC50 in series [5] is 10.52; in series [6], 10.52; in the series with lung cancer A549, 10.05; with ovary cancer SK-OV-3, 10.05; in the series with prostate cancer PC-3, 10.15; in the series with mouse fibroblasts L929, 9.29. For the same molecule, in [7], the pIC50 is 10.30.

As to `COC(=O)[C@]12Oc3cc4c(c(O)c3C(=O)C1=C(O)CC[C@@H]2O)[C@@H]1C=C[C@]2(C4)C(=C(O)c3c(O)cc(C)cc3[C@@H]2O)C1=O` [xanthoquinodin A6], the “Cytotoxicity compared with other xanthoquinodins (in words)” value in the series with NCI-H187 and Vero is on record as “stronger cytotoxicity”. In series [8], the “Antifungal effects (in words)” value is “significant antifungal effects”.

Consider `COC(=O)[C@@]12Oc3c(c(O)cc4c3[C@@H]3C=C[C@]5(C4)C(=C(O)c4c(O)cc(C)cc4[C@@H]5O)C3=O)C(=O)C1=C(O)CC[C@@H]2O` [xanthoquinodin B5], for which the “Antifungal effects (in words)” value in [4] is reported as “significant antifungal effects”. The “Cytotoxicity compared with other xanthoquinodins (in words)” value with NCI-H187 and Vero is “stronger cytotoxicity”.

As for ketoxanthoquinodin A6, the “Antifungal effects (in words)” value in [8] is recorded as “significant antifungal effects”.

Take xanthoquinodin JBIR-99: the “Antiproliferative activity (in words)” value in series [9] is “high selective antiproliferative activity”.
